# Patent publication US6133323A, “Process for enhancing immune response in animals using β-carotene as a dietary supplement” (priority 1998, dated 2000)
# Like-named read-outs stand apart in the source and are kept apart here.
# Experiments:
# [1] = system: immunoglobulins (IgG, IgM, total IgG); assay: Plasma immunoglobulins (Ig); format: in vivo, female Beagles (dogs); conditions: dog
# Description: (§1) The following parameters were assessed in all the animals or in the peripheral blood lymphocytes: (1) delayed-type hypersensitivity (DTH) against PHA (nonspecific immunity) and vaccine (specific immunity), (2) lymphocyte proliferation, (3) lymphocyte populations and (4) immunoglobulins (Ig).
# [2] = system: lymphocyte blastogenesis; assay: Mitogen-induced lymphocyte blastogenesis (lymphocyte proliferation); format: in vivo, female Beagles (dogs); conditions: dog, β-carotene feeding
# Description: (§2) Female Beagles (4 to 5 mo old) were supplemented daily with 0, 25, 50 or 100 mg of β-carotene to study the role of dietary β-carotene in enhancing the cell-mediated and humoral immune systems of the dog. The following parameters were assessed in all the animals or in the peripheral blood lymphocytes: (1) delayed-type hypersensitivity (DTH) against PHA (nonspecific immunity) and vaccine (specific immunity), (2) lymphocyte proliferation, (3) lymphocyte populations and (4) immunoglobulins (Ig).
# [3] = parameters: species or system female Beagle dogs; conditions: dog, in vivo
# Description: (§3) Female Beagle dogs (18 to 19 months of age; 7 to 9 kg body weight) were used in Examples 1-3 and were fed a basal diet (The lams Co., Lewisburg, Ohio.) which met or exceeded the requirement for all essential nutrients. Animals were housed indoors in light--(14 hr light; 10 hr dark) and temperature-controlled rooms.
# (§4) All procedures were conducted under dim light. Duplicate aliquots of plasma, each leukocyte homogenate, and each leukocyte subcellular fraction were extracted with a 1:1 mixture of diethyl ether and petroleum ether in the presence of BHT. The ether phase was removed and dried under a stream of nitrogen.
# In this Example, the dogs (n=6/treatment) were fed daily at 0800 hr for 7 consecutive days with 0, 12.5, 25, 50 or 100 mg β-carotene. The β-carotene was top-dressed on the food and fed in the morning meal. Blood was sampled once daily on day 0 (immediately prior to the first dose) and subsequently at 6 hr after each dosing (days 1 through 7). […] Plasma was isolated and analyzed for concentrations of β-carotene.
# [4] = dog, in vivo
# [5] = format: in vivo, female Beagles (dogs); conditions: dog, daily supplementation
# Description: as §2
# [6] = system: peripheral blood lymphocytes; parameters: species or system female short hair Tabby cats; conditions: in vivo
# Description: (§5) Mature female short hair Tabby cats (7 to 8 months of age; 1.5 to 2.0 kg body weight) were used for Examples 4-6and were fed a basal diet (The lams Co., Lewisburg, Ohio.) which met or exceeded the requirement for all essential nutrients. Animals were group-housed indoors in light- and temperature-controlled rooms.
# (§6) This example studied the uptake of β-carotene by blood lymphocytes in cats. The cats (n=8/treatment) were fed 0, 5 or 10 mg of β-carotene daily for 14 days. Blood was sampled on days 7 and 14 with the aid of a blood collection vacutainer set (Becton Dickenson, Franklin Lakes, N.J.) in sedated animals (10 mg ketamine and 0.1 mg of acepromazine/kg body weight). Blood lymphocytes and neutrophils were separated by density gradient centrifugation. Cell numbers were enumerated. Lymphocytes were resuspended in PBS containing 3% sodium ascorbate as an antioxidant. An aliquot of the cell suspension was sonicated for 30 seconds to disrupt the cells. The lymphocyte homogenate was extracted for the HPLC analysis of β-carotene. Adequate numbers of neutrophils could not be obtained; therefore, no data are available in quantitating the uptake of β-carotene by circulating neutrophils.
# [7] = in vivo; parameters: species or system female short hair Tabby cats
# Description: as §5
# In this Example, the cats (n=6/treatment) were dosed daily at 0800 hr for 6 consecutive days with 0, 1, 2, 5 or 10 mg β-carotene. Blood was sampled once daily on day 0 (immediately prior to the first dose) and subsequently at 12 hr after each dosing (days 1 through 6). This blood sampling time was chosen based on the results obtained in Example 5. Plasma was isolated and analyzed for concentrations of β-carotene.
# [8] = system: IL-2; assay: IL-2 production; format: in vivo, female Beagles (dogs); conditions: dog, β-carotene feeding
# [9] = cited from earlier work
# [10] = system: CD8 cells; assay: Lymphocyte populations (CD8 cells); format: in vivo, female Beagles (dogs); conditions: dog, 20 mg daily, weeks 2 and 4
# Description: as §1
# [11] = Blood uptake of β-carotene in dogs after a single oral dose (plasma, HPLC); conditions: dog
# [12] = in vivo; parameters: species or system female short hair Tabby cats; conditions: po
# Description: as §5
# To study the uptake of oral β-carotene in cats given a single dose of β-carotene orally, cats (n=6/treatment) were given once perorally 0, 10, 20 or 50 mg of β-carotene (10% cold water dissolvable; BASF Corp., Ludwigshafen, Germany). The appropriate dose of β-carotene was dissolved in 0.6 ml of water and fed orally by using a feeding syringe. […] These cats were fed once with 50 mg β-carotene and blood sampled at 0 (immediately prior to β-carotene feeding), 3, 6, 10, 16, 24, 30 and 36 hr.
# The results from this example are illustrated in FIG. 14 and show peak concentrations of β-carotene generally occurring between 10 and 16 hr post-dosing. Subsequently, blood was sampled from the remaining cats at 0, 12, 24, 30, 36, 42, 48 and 72 hr after dosing. Plasma was similarly separated and analyzed.
# [13] = system: DTH response to PHA; assay: Delayed-type hypersensitivity (DTH) against PHA (nonspecific immunity); format: in vivo, female Beagles (dogs); conditions: dog, 50 mg β-carotene daily, 7 weeks
# Description: as §2
# [14] = in vivo; conditions: dog, po
# [15] = system: subcellular fractions of blood lymphocytes; parameters: species or system female Beagle dogs; conditions: dog, in vivo
# Description: as §4
# (§7) This example was designed to study the uptake of β-carotene in dogs by blood lymphocytes. The dogs (n=8/treatment) were fed 0, 50 or 100 mg of β-carotene daily for 30 days. Blood was sampled from all dogs via the jugular vein on days 10, 20 and 30. Blood lymphocytes and neutrophils were separated by density gradient centrifugation. Cell numbers were enumerated. Lymphocytes and neutrophils were resuspended in PBS containing 3% sodium ascorbate as an antioxidant. An aliquot of the cell suspension was sonicated for 30 seconds to disrupt the cells. The leukocyte homogenates were extracted for HPLC analysis of β-carotene.
# (§8) On day 30, a larger aliquot of blood was taken and leukocyte suspensions prepared as described above for subsequent subcellular fractionation. Cells were disrupted by sonication for 20 seconds in 5 volumes of 0.25 M sucrose. Sodium ascorbate was added as the antioxidant. The homogenate was centrifuged (600×g for 10 min at 4° C.) and the nuclear pellet separated from the supernatant. The postnuclear supernatant was centrifuged (17,300×g for 20 min at 4° C.) to separate the mitochondrial fraction. The postmitochondrial supernatant was centrifuged (102,000×g for 60 min at 4° C.) to separate the microsomal from the cytosolic fraction. Each subcellular fraction was analyzed for β-carotene content by HPLC.
# [16] = system: subcellular fractions of blood neutrophils; parameters: species or system female Beagle dogs; conditions: dog, in vivo
# Description: as §4, §7, §8
# [17] = system: subcellular lymphocyte fractions; parameters: species or system female short hair Tabby cats; conditions: in vivo
# Description: as §5, §6
# A larger aliquot was used to prepare subcellular lymphocyte fractions. Lymphocytes were disrupted by sonication for 20 seconds in 5 volumes of 0.25 M sucrose. Sodium ascorbate was added as the antioxidant. The homogenate was centrifuged (600×g for 10 min at 4° C.) and the crude nuclear pellet separated from the supernatant. The postnuclear supernatant obtained earlier was centrifuged (7,300×g for 20 min at 4° C.) to separate the mitochondrial fraction. The postmitochondrial supernatant was centrifuged (102,000×g for 60 min at 4° C.) to separate the microsomal from the cytosolic fraction. Each subcellular fraction was analyzed for β-carotene content by HPLC.
# [18] = system: blood neutrophils; parameters: species or system female Beagle dogs; conditions: dog, in vivo
# Description: as §3, §4, §7
# [19] = system: blood lymphocytes; parameters: species or system female Beagle dogs; conditions: dog, in vivo
# Description: as §3, §4, §7
# [20] = pigs and rodents; cited from earlier work
# [21] = system: CD4+ cells; assay: Lymphocyte populations (CD4+ cells); format: in vivo, female Beagles (dogs); conditions: dog, 20 or 50 mg daily, wk 8
# Description: as §1
# [22] = system: DTH response to vaccine; assay: Delayed-type hypersensitivity (DTH) against vaccine (specific immunity); format: in vivo, female Beagles (dogs); conditions: dog, 20 or 50 mg β-carotene daily, 7 weeks
# Description: as §1
compound,measurement,setting,value
CC1=C(/C=C/C(C)=C/C=C/C(C)=C/C=C/C=C(C)/C=C/C=C(C)/C=C/C2=C(C)CCCC2(C)C)C(C)(C)CCC1 [β-carotene],dose dependence of Ig increases,[1]; 0 to 20 mg,dose dependent
same,antibody response for both Ig at 20 mg,[1]; 20 mg daily,greatest antibody response
same,Ig response at the highest level (50 mg),[1]; 50 mg daily,did not produce a further increase
same,"concentrations of IgG, IgM and total IgG",[1]; as early as 1 wk after dietary supplementation,increased significantly
same,mitogen-induced lymphocyte blastogenesis,[2],did not influence
same,"increase in daily concentrations of plasma β-carotene, 100 mg vs other doses",[3],steepest increase
same,plasma β-carotene after the last dose relative to after the first dose,[3],2.5-4 fold
same,plasma β-carotene of dogs lower than that observed in cats,[4],10-16 fold
same,"time of peak blood β-carotene, dogs compared with cats",[4],occurred earlier in dogs than in cats
same,half-life of plasma β-carotene,[4]; po,~4 h
same,effect on plasma retinol,[5],did not influence
same,effect on plasma α-tocopherol,[5],did not influence
same,"accumulation of β-carotene in lymphocytes, 10 mg vs 5 mg",[6],did not have higher accumulation
same,day of maximal uptake of dietary β-carotene by lymphocytes,[6],≤ 7 days
same,uptake of β-carotene by blood lymphocytes on day 14,[6],no additional increases
same,β-carotene in peripheral blood lymphocytes on day 0,[6],undetectable
same,"increase in daily changes in plasma β-carotene, 10 mg vs other doses",[7],steepest increase
same,plasma β-carotene after the last dose relative to after one dose,[7],1.5-2 fold
same,concentration at 12 h,"[7]; cat, po",192 ± 58 ng/mL
same,IL-2 production,[8],did not influence
same,β-carotene in the liver and milk of dogs,[9]; earlier studies,only trace amounts
same,β-carotene in the circulating blood and organs of dogs,[9]; some studies,low to undetectable amounts
same,population of CD8 cells,[10],elevated population
same,Tmax,[11],6 h
same,half-life of plasma β-carotene,[12]; cat,about 24 hr
same,half-life,"[12]; cat, half-life of plasma β-carotene",720 to 1080 min
same,Tmax,"[12]; cat, time of peak concentrations of plasma β-carotene",12 h
same,Tmax,"[12]; cat, time of peak concentrations of β-carotene (post-dosing)",10 to 16 h
same,"plasma β-carotene concentration, 50 mg vs other doses",[12],highest (P<0.01)
same,DTH response to PHA,[13],greatest response
same,Tmax,[14],3 to 6 h
same,half-life,[14]; half-life of plasma β-carotene,~180 min
same,share of total lymphocyte β-carotene in the cytosol,[15],52-62%
same,share of total lymphocyte β-carotene in the microsomes,[15],16-23%
same,share of total lymphocyte β-carotene in the mitochondria,[15],14-17%
same,share of total lymphocyte β-carotene in the nuclei,[15],6-8%
same,β-carotene in lymphocyte subcellular fractions of dogs compared with cats,[15],substantially lower
same,dose effect on β-carotene uptake by neutrophil subcellular fractions,[16],No significant dose effect
same,β-carotene in nuclei of blood neutrophils,[16],not detected
same,"accumulation of β-carotene in all fractions, day 14 vs day 7",[17],no additional accumulation
same,"concentrations of β-carotene in lymphocyte fractions, 10 mg vs 5 mg",[17],did not have higher concentrations
same,influence of dose or length of supplementation on relative β-carotene profiles in lymphocyte fractions,[17],generally were not influenced
same,relative proportion of β-carotene in the microsomes of lymphocytes,[17],20-35%
same,β-carotene uptake in the nuclei compared to unsupplemented controls,[17],significant
same,neutrophil β-carotene concentrations on day 30,[18],no further increase
same,"treatment difference in β-carotene concentrations in lymphocytes, 50 versus 100 mg",[19],no significant treatment difference
same,β-carotene in lymphocytes of dogs lower than that observed in cats,[19],20-30 fold
same,β-carotene in peripheral blood lymphocytes on day 0,[19],undetectable
same,concentrations of β-carotene,[20],very low concentrations
same,population of CD4+ cells compared to controls,[21],elevated population
same,DTH response to vaccine,[22],significantly higher DTH response
carotene,"carotene in the blood, liver and milk of dogs","[9]; dog, in vivo","trace amounts, if any"
